Patent US5246959A, “Poly(aminoalkyl)aminocarbonyl aminoacyl aminodiol amino acid derivatives as anti-hypertensive agents” (G. D. Searle & Co., priority 1991, dated 1993)
Where a SMILES comes first, the peptide text is derived from it. [ ]: non-standard residue; d: D form. The star is where a group is joined. Sta = CC(C)C[C@H](N)[C@@H](O)CC(=O)O; Isovaleryl = CC(C)CC(=O)*

Tests used:
Human Renin = molecular target: T1, Human Renin (Homo sapiens, UniProt P00797); test: human renin inhibition test in vitro (angiotensin I by radioimmunoassay); format: biochemical; settings: pH 7.4, 37° C., two hours, human plasma
T1 construct: purchased National Institute for Biological Standards, London
T1 sequence (P00797 67-406): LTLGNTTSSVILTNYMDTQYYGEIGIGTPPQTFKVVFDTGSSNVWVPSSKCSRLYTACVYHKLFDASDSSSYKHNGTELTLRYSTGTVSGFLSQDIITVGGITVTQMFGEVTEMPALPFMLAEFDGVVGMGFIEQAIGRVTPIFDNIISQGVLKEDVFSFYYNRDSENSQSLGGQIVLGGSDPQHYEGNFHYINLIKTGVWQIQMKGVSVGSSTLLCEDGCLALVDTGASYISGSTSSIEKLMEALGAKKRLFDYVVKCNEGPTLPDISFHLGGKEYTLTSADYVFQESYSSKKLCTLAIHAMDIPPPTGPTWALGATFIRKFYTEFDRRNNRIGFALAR
Experimental: Compounds of Formula I were evaluated as inhibitors of human renin in an in vitro assay, as follows: This human renin inhibition test has been previously described in detail [Papaioannou et al., Clinical and Experimental Hypertension, A7(9), 1243-1257 (1985)]. Human renin was obtained from the National Institute for Biological Standards, London. An incubation mixture was prepared containing in a total volume of 0.25 mL 100 mM Tris-acetate buffer at pH 7.4, 25×10^-6 Goldblatt units of renin, 0.05 mL of plasma from human volunteers taking oral contraceptives, 6.0 mM sodium EDTA, 2.4 mM phenylmethyl sulfonyl fluoride, 1.5 mM 8-hydroxyquinoline, 0.4 mg/mL BSA, and 0.024 mg/mL neomycin sulfate. This mixture was incubated for two hours at 37° C. in the presence or absence of renin inhibitors. The produced angiotensin I was determined by radioimmunoassay (New England Nuclear kit). Test compounds to be assayed were solubilized in DMSO and diluted with 100 mM Trisacetate buffer at pH 7.4 containing 0.5% bovine serum albumin (BSA) to the appropriate concentration. The final concentration of organic solvent in the reaction mixture was less than 1%. Control incubations at 37° C. were used to correct for effects of organic solvent on renin activity.

renin = settings: cited from earlier work
cathepsin D = settings: cited from earlier work
pepsin = settings: cited from earlier work
hog renin = settings: after injection of hog renin into nephrectomized rats; cited from earlier work

Row | Structure (SMILES) | IC50 (Human Renin) [nM] | inhibitor of renin (renin) | inhibitor of cathepsin D (cathepsin D) | inhibitor of pepsin (pepsin) | reduce blood pressure in vivo (hog renin)
1 | CC(C)C[C@H](NC(=O)[C@H](Cc1ccccc1)OC(=O)N(C)CCN(C)CCN(C)C)C(=O)N[C@@H](CC1CCCCC1)[C@@H](O)[C@@H](O)CC(C)C [Example 10] | 2.4 | – | – | – | –
2 | CC(C)C[C@H](O)[C@H](O)[C@H](CC1CCCCC1)NC(=O)[C@H](Cc1cnc[nH]1)NC(=O)[C@H](Cc1ccccc1)OC(=O)N(C)CCN(C)CCN(C)C [Example 11, O-{N-[2-{N-[2-(N,N-dimethylamino)ethyl]-N-methylamino}-ethyl]-N-methylaminocarbonyl}-3-L-phenyllactyl-L-histidineamide of (2S,3R,4S)-2-amino-1-cyclohexyl-3,4-dihydroxy-6-methylheptane] | 1 | – | – | – | –
3 | CC(C)C[C@H](O)[C@H](O)[C@H](CC1CCCCC1)NC(=O)[C@H](C)CNC(=O)[C@H](Cc1ccccc1)OC(=O)N(C)CCN(C)CCN(C)C [Example 12] | 110 | – | – | – | –
4 | CC(C)CC(=O)N[C@H](C(=O)N[C@H](C(=O)N[C@@H](CC(C)C)[C@@H](O)CC(=O)N[C@@H](C)C(=O)N[C@@H](CC(C)C)[C@@H](O)CC(=O)O)C(C)C)C(C)C [pepstatin] (Isovaleryl-VV[Sta]A[Sta]-OH) | – | inhibitor | inhibitor | inhibitor | found to reduce blood pressure in vivo
